Laboratory results taken from patent US10258635B2, “Formulations and compositions of vitamin D analogs for treating and preventing cancer and other diseases” (priority 2013, dated 2019).
Entries after “also recorded” stand apart in the source; their conditions may differ.

What was measured:
[1] = test system: LNCaP prostate cancer cells; assay: 3H-thymidine incorporation assay, APH-0701 vs naked AMPI-109; type: cell-based
Procedure: Antiproliferative activities in these cells were measured by ^3H-thymidine incorporation assay.

[2] = test system: LNCaP, PC-3 and DU-145 prostate cancer cells; assay: Anti-proliferation and apoptosis in prostate cancer cells (summary); type: cell-based
24-OHase = assay: Message for 24-OHase in LNCaP cells; type: cell-based
[3] = test system: DU-145 human prostate cancer cells; assay: DU-145 xenograft efficacy, p.o. administration (Example 11); type: in vivo, nude mice
VDR = VDR (Homo sapiens, UniProt P11473); assay: Covalent linking to and activation of VDR; type: biochemical; settings: covalent link in ligand-binding pocket via a cysteine residue
VDR, sequence (P11473 whole entry): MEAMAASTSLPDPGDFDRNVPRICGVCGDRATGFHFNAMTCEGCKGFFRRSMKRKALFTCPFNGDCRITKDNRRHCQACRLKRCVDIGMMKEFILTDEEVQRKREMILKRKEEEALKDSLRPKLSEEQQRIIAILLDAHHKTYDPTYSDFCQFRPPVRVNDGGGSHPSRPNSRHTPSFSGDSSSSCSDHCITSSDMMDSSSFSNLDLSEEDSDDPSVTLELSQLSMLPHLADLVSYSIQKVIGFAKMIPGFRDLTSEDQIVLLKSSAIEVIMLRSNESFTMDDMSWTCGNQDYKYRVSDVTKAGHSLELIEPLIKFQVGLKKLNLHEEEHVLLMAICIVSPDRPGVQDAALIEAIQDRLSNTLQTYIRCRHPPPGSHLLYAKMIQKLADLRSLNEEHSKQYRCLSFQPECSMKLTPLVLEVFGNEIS

[4] = Stability study in liver homogenate; type: in vitro ADME, mouse; settings: 37° C., 60 minutes, HPLC
Procedure: Pieces of liver, obtained from normal mice were minced and homogenized in phosphated saline with a polytron. […] The organic layer was dried in a stream of nitrogen and the residue was analyzed by HPLC (as above).

[5] = test system: RCC 54 kidney cancer cells; settings: 7.5×10^−7 to 10^−6M
Procedure: In a typical assay cells were grown to 50-60% confluence in 24-well plates in respective media containing 5% FBS, and serum starved for 20 hours, followed by treatment with various agents (in 0.1% ethanolic solution) or ethanol (vehicle) in serum-containing medium for 16 hours. After the treatment media was removed from the wells and replaced with media containing ^3H-thymidine (Sigma, 0.1 μCi) per well, and the cells were incubated for 3 hours at 37° C. After this period media was removed by aspiration and the cells were washed thoroughly (3×0.5 ml) with PBS. Ice-cold 5% perchloric acid solution (0.5 ml) was added to each well and the cells were incubated on ice for 20 minutes. After this incubation, perchloric acid was removed by aspiration, replaced with 0.5 ml of fresh perchloric acid solution and the cells were incubated at 70° C. for 20 minutes. Solution from each well was mixed with scintillation fluid and counted in a liquid scintillation counter. There were eight (8) wells per sample; statistics was carried out by Student's t test.

[6] = test system: DU-145 human prostate cancer cells; assay: DU-145 xenograft, AMPI-109 vs APH-0701 (Example 12); type: in vivo, athymic mice; settings: 0.5 μg/Kg
Procedure: Male, athymic mice (average weight 20 gm) were fed normal rat chow and water ad libitum. They were inoculated with DU-145 cells (5×10^6 cells, dispersed in 100 μl PBS) in the flank.

[7] = Maximum tolerated dose of AMPI-109 in DU-145 tumor-bearing SCID mice; type: in vivo
Procedure: DU-145 prostate cancer cells (ATCC, Manassas, Va.) were grown in culture, and then approximately 5 million cells/animal was injected under the skin in the flank area of SCID mice (Charles River). Tumors grew in 2-3 weeks, and when they reached a size of approximately 1 cm^3, they were injected with 0.1, 0.5 and 1 μg/kg dose of AMPI-109 (in 5% […] in sesame oil) intraperitoneally. Dosing levels were limited by concentrations and volumes. Each group had six mice. Dosing was carried out every third day and weight of each mouse was recorded.

DU-145 cells = assay: 3H-thymidine incorporation assay in DU-145 cells; type: cell-based, human
Serum-stability study = type: in vitro ADME; settings: pooled human serum, 37° C., 60 minutes, HPLC
Procedure: The organic layer was dried in a stream of nitrogen and the residue was analyzed by HPLC (5% H2O— 95% methanol 1.5 ml/min, 265 nm detection, Agilent C18 column).

normal kidney cells = assay: 3H-thymidine incorporation assay in normal kidney cells; type: cell-based; settings: 10^−6M
[8] = test system: DU-145 human prostate cancer cells; assay: DU-145 xenograft efficacy, i.p. administration (Example 10); type: in vivo, athymic mice
Procedure: Male, athymic mice (average weight 20 gm) were fed normal rat chow and water ad libitum. They were inoculated with DU 145 cells, grown in culture in their flanks under light anesthesia. When the tumor size grew to approximately 100 mm^3 the animals were randomized into groups of ten (10) tumor-bearing animals, and they were given AMPI-109 (0.1 μg/kg), calcitriol (0.5 and 1 μg/kg), and vehicle (5% DMA in sesame oil) by intraperitoneal injection (i.p.) on every third day (when body weights were determined); and one group was left untreated. Treatment started on day 11 and stopped on day 30; and they were left untreated for two (2) additional days when they were sacrificed.

SMILES: C=C1/C(=C\C=C2/CCC[C@@]3(C)C2CC[C@@H]3C(C)CCCC(C)(C)O)C[C@@H](OC(=O)CBr)CC1O (stereo partly drawn) [AMPI-109, 1α,25-dihydroxyvitamin D3-3-bromoacetate]
- growth of LNCaP cells [1]: almost completely inhibited the growth of LNCaP cells
- apoptosis [2]: induced apoptosis
- anti-proliferative strength relative to calcitriol ([2]; mole-per-mole basis): significantly stronger anti-proliferative agent than calcitriol
- message for 24-OHase (24-OHase): up regulated
- anti-tumor effect ([3]; 0.5 μg/kg p.o. oral gavage): strong anti-tumor effect
- potency in p.o.-mode relative to i.p.-mode (times less potent) ([3]; mouse, in vivo): 5 times
- body weight ([3]; p.o., calcitriol 0.5 μg/kg and 1.0 μg/kg, AMPI-109 0.5 μg/kg): did not cause any significant change in body weight
- VDR activation (VDR): constitutively activated VDR
- stability in mouse liver homogenate [4]: corresponds to the peak of a standard sample
- reduction of proliferation of RCC 54 kidney cancer cells [5]: > 95%
- gross body-weights [6]: not significantly different from control animals
- average size of tumors at the end of the experiment ([6]; every third day, day 7 to 42): ~475 mm^3
- mortality ([7]; 1 μg/kg i.p. every third day): All mice in the 1 μg/Kg dose died after three dosing
- relative MTD ([7]; i.p., every third day, based on dosing): ≤ 3 µg/kg
- antiproliferative effect in DU-145 cells (DU-145 cells; 2.5×10^−7M to 10^−6M, 20 hours): strong and dose-dependent antiproliferative effect
- anti-proliferative effect in DU-145 cells (DU-145 cells; 10^−6M, separate experiment): strong anti-proliferative effect; also recorded: significantly stronger antiproliferative agent than EB-1089
- stability in human serum (Serum-stability study): corresponds to the peak of a standard sample
- impact on normal kidney cells versus control (normal kidney cells): neither Calcitriol nor AMPI-109 had any statistically different impact
- body weight ([8]; 0.1 μg/kg i.p.): some reduction in body weight
- anti-tumor effect ([8]; 0.1 μg/kg i.p. every third day, day 11 to 30): strong anti-tumor effect
- potency relative to calcitriol in reducing tumor-size ([8]; i.p., weight basis): approximately 5 times
